Measurements published in US10174015B2, “Substituted heterocyclic derivative, preparation method and use thereof” (Xiamen University, priority 2014, dated 2019).

Target: hERG potassium channel (Homo sapiens (Human), UniProt Q12809)
Assay: hERG potassium channel automated patch clamp in CHO-hERG cells
Protocol: CHO-hERG cells (purchased from ATCC) were incubated in a culture flask. When the cell density reached 60˜80%, the culture medium (Glutamax DMEM/F12 medium (Gibco, Shanghai) containing 10% fetal bovine serum) was removed. The cells were washed with 7 mL PBS once, and then digested by adding 3 mL Detachin cell dissociation buffer. After complete digestion, the resultant mixture was neutralized by adding 7 mL culture medium, and centrifuged. The supernatant was removed with a pipette, 5 mL culture medium was added to re-suspend the cells to ensure a cell density of 2˜5×10^6/mL.
Intracellular fluid and extracellular fluid were prepared as described in the following table.
A certain amount of compound was dissolved in […] at the following concentrations, to prepare the stock solution of compound. 2 μL stock solution of compound was added to 998 μL extracellular fluid, and was subjected to 5-fold serial dilution in extracellular fluid containing 0.2% DMSO to get the final concentrates to be tested.
Single cell giga-seal and formation of whole-cell mode were automatically performed by Sophion Qpatch HT fully automated cell patch clamp systems. After obtaining the whole-cell recording mode, the cell was clamped at −80 mV. The cell first underwent pre-voltage of −50 mV for 50 msec, then underwent depolarization stimulation at 20 mV for 5 sec, and then underwent repolarization at −50 mV for 5 sec, and then the voltage return to −80 mv. The cell underwent the stimulation at the voltage every 15 sec, and the data were recorded for 2 min, then extracellular fluid was administered, and then the data were recorded for 2 min. Then, the administration process begun. The concentration of a test compound started from the lowest concentration, each test concentration was administered for 2 min. […] At least three cells were tested for each concentration (n≥3). The experimental data was analyzed by XLFit software.

Sequence of hERG potassium channel (Q12809 whole entry): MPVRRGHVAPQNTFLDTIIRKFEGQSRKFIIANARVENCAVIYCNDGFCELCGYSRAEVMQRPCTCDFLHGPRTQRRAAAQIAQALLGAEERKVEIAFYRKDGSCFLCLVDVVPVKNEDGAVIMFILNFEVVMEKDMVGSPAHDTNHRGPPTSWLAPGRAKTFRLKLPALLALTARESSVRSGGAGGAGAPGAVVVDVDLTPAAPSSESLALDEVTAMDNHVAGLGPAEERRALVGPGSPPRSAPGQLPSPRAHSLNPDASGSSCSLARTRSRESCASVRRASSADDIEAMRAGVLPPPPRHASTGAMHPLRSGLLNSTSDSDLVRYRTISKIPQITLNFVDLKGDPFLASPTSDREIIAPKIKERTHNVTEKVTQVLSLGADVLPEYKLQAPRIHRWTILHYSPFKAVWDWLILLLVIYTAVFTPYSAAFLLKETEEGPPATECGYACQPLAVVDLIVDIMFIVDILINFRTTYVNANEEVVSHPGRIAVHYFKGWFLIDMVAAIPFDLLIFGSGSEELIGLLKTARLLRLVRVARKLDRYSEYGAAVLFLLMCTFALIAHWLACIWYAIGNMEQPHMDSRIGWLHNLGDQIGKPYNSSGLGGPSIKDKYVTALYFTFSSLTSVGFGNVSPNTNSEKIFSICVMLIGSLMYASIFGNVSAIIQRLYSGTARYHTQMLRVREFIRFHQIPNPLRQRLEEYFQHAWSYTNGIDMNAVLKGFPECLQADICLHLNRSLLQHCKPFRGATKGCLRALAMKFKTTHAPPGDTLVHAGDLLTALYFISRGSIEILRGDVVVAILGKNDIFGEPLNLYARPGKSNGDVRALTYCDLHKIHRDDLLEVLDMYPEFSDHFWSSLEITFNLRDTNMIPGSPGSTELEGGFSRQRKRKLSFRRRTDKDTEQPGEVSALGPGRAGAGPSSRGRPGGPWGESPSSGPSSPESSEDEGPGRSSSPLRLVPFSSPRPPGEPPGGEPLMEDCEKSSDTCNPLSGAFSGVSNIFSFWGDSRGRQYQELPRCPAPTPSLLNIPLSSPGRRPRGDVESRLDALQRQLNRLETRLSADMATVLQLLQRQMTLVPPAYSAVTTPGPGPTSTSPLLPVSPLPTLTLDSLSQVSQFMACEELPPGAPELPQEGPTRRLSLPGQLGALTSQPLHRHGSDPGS

SMILES | IC50 [µM]
O=C(CCCCCc1ccccc1)N1CCOC1=O [Compound 2, Phenylhexanoyl Oxazolidinone] | > 40
O=C(CCCCCc1cccc(Cl)c1)N1CCOC1=O [Compound 9, 3-Chlorophenylhexanoyl Oxazolidinone] | > 40
